Molecules are shown by their SMILES.

The record followed here is patent publication US10568876B2, “Tetrahydroisoquinoline derivatives useful as inhibitors of diacylglyceride O-acyltransferase 2” (Merck Sharp & Dohme Corp., priority 2014, dated 2020).

hDGAT2, sequence (Q96PD7 whole entry): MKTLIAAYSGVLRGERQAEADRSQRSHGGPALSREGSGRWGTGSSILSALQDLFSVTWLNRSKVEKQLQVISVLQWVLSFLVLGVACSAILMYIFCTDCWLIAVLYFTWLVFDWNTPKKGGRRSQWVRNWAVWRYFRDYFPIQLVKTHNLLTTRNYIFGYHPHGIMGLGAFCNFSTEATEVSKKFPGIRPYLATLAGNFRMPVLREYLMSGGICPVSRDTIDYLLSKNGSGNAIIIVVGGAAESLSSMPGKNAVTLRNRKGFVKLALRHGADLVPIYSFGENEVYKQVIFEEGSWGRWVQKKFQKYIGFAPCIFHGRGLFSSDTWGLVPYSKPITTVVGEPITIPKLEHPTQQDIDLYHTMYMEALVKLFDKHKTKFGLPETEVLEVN

This assay has as its target hDGAT2 (Homo sapiens (Human), UniProt Q96PD7). Briefly: DGAT2 Enzymatic Activity Assay. The note with it: hDGAT2 Sf-9 membrane prep; 25 μM diolein, 10 μM oleoyl-CoA; triolein product by LC/MS/MS; read-out: IC50 values for inhibition of DGAT2. In kind it is biochemical. Summed up: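 Membranes from Sf-9 cells expressing untagged hDGAT2 (10 ng/μL) incubated at room temperature with 25 μM diolein and 10 μM oleoyl-CoA in 100 mM Tris pH 7.0, 20 mM MgCl2, 5% ethanol. Triolein product quantified by LC/MS/MS against spiked internal standard; IC50 from 4-parameter sigmoidal fit.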
With `COC(=O)c1cccc(-c2ccc(CNC(=O)C3CC3c3ccccc3)c3c2CCN(Cc2cccnc2)C3)c1` (centres unmarked) [Example 99, methyl 3-(8-((2-phenylcyclopropanecarboxamido)methyl)-2-(pyridin-3-ylmethyl)-1,2,3,4-tetrahydroisoquinolin-5-yl)benzoate], the IC50 was found to be 3900 nM. For `CC(C)Cn1cc(-c2ccc(CNC(=O)[C@@H]3C[C@H]3c3ccccc3)c3c2CCN(C(=O)NC(C)(C)C)C3)cn1` (relative stereo) [Example 37, N-(tert-butyl)-5-(1-isobutyl-1H-pyrazol-4-yl)-8-(((trans)-2-phenylcyclopropanecarboxamido)methyl)-3,4-dihydroisoquinoline-2(1H)-carboxamide], the IC50 was determined as 95.6 nM.

On to `COc1cccc(-c2ccc(CNC(=O)[C@@H]3C[C@H]3c3ccccc3)c3c2CCN(C(=O)Nc2ccncc2)C3)c1` (relative stereo) [Example 18, 5-(3-methoxyphenyl)-8-(((trans)-2-phenylcyclopropanecarboxamido)methyl)-N-(pyridin-4-yl)-3,4-dihydroisoquinoline-2(1H)-carboxamide], for which the IC50 was found to be 2100 nM. As for `Cc1noc([C@@H]2C[C@H]2C(=O)NCc2ccc(-c3cccc(C(F)(F)F)c3)c3c2CN(C(=O)C(C)(C)O)CC3)n1` (stereo in doubt) [Example 120, (trans)-N-((2-(2-hydroxy-2-methylpropanoyl)-5-(3-(trifluoromethyl)phenyl)-1,2,3,4-tetrahydroisoquinolin-8-yl)methyl)-2-(3-methyl-1,2,4-oxadiazol-5-yl)cyclopropanecarboxamide], the half-inhibitory concentration (IC50) was 1580 nM. As for `CC(C)(C)NC(=O)N1CCc2c(-c3ccc4ncnn4c3)ccc(CNC(=O)[C@@H]3C[C@H]3c3ccccc3)c2C1` (relative stereo) [Example 29, 5-([1,2,4]triazolo[1,5-a]pyridin-6-yl)-N-(tert-butyl)-8-(((trans)-2-phenylcyclopropanecarboxamido)methyl)-3,4-dihydroisoquinoline-2(1H)-carboxamide], the concentration for half-maximal inhibition (IC50) stood at 4640 nM. The figure for `CC(C)(C)NC(=O)N1CCc2c(-c3cccc(-n4cncn4)c3)ccc(CNC(=O)[C@@H]3C[C@H]3c3ccccc3)c2C1` (relative stereo) [Example 50, 5-(3-(1H-1,2,4-triazol-1-yl)phenyl)-N-(tert-butyl)-8-(((trans)-2-phenylcyclopropanecarboxamido)methyl)-3,4-dihydroisoquinoline-2(1H)-carboxamide] is 9.3 nM; for `COC(=O)c1cccc(-c2ccc(CNC(=O)C3CC3c3ccccc3)c3c2CCN(Cc2ncn(C)c2C)C3)c1` (centres unmarked) [Example 95, methyl 3-(2-((1,5-dimethyl-1H-imidazol-4-yl)methyl)-8-((2-phenylcyclopropanecarboxamido)methyl)-1,2,3,4-tetrahydroisoquinolin-5-yl)benzoate] it is 3780 nM. For `COc1cccc(-c2ccc(CNC(=O)C3CC3c3cccnc3)c3c2CCN(C(=O)NC(C)(C)C)C3)c1` (centres unmarked) [Example 13, N-(tert-butyl)-5-(3-methoxyphenyl)-8-((2-(pyridin-3-yl)cyclopropanecarboxamido)methyl)-3,4-dihydroisoquinoline-2(1H)-carboxamide], the IC50 was 6.1 nM. On to `CCCNC(=O)N1CCc2c(-c3cccc(C(F)(F)F)c3)ccc(CNC(=O)[C@@H]3C[C@H]3c3nc(C)no3)c2C1` (relative stereo) [Example 66, 8-(((trans)-2-(3-methyl-1,2,4-oxadiazol-5-yl)cyclopropanecarboxamido)methyl)-N-propyl-5-(3-(trifluoromethyl)phenyl)-3,4-dihydroisoquinoline-2(1H)-carboxamide], for which the IC50 worked out at 11.5 nM. As to `Cn1nnc2ccc(-c3ccc(CNC(=O)[C@@H]4C[C@H]4c4ccccc4)c4c3CCN(C(=O)NC(C)(C)C)C4)cc21` (relative stereo) [Example 33, N-(tert-butyl)-5-(1-methyl-1H-benzo[d][1,2,3]triazol-6-yl)-8-(((trans)-2-phenylcyclopropanecarboxamido)methyl)-3,4-dihydroisoquinoline-2(1H)-carboxamide], the IC50 is 2860 nM. Turning to `Cc1noc([C@@H]2C[C@H]2C(=O)NCc2ccc(-c3cccc(OC(F)(F)F)c3)c3c2CN(C(=O)NC(C)(C)C)CC3)n1` (relative stereo) [Example 12, N-(tert-butyl)-8-(((trans)-2-(3-methyl-1,2,4-oxadiazol-5-yl)cyclopropanecarboxamido)methyl)-5-(3-(trifluoromethoxy)phenyl)-3,4-dihydroisoquinoline-2(1H)-carboxamide], the half-inhibitory concentration (IC50) was determined as 3.6 nM. Take `COc1cccc(-c2ccc(CNC(=O)[C@@H]3C[C@H]3c3ccccc3)c3c2CCN(C(=O)Nc2cc(C)no2)C3)c1` (relative stereo) [Example 20, 5-(3-methoxyphenyl)-N-(3-methylisoxazol-5-yl)-8-(((trans)-2-phenylcyclopropanecarboxamido)methyl)-3,4-dihydroisoquinoline-2(1H)-carboxamide]: the half-inhibitory concentration (IC50) is 1640 nM.

For the compound `COc1cccc(-c2ccc(CNC(=O)[C@H]3C[C@@H]3C(=O)O)c3c2CCN(C(=O)NC(C)(C)C)C3)c1` (relative stereo) [Example 84, (trans)-2-(((2-(tert-butylcarbamoyl)-5-(3-methoxyphenyl)-1,2,3,4-tetrahydroisoquinolin-8-yl)methyl)carbamoyl)cyclopropanecarboxylic acid], the 50% inhibitory concentration (IC50) stood at 1340 nM. As for `CC(C)(C)NC(=O)N1CCc2c(-c3cccc(C(F)(F)F)c3)ccc(CNC(=O)[C@@H]3C[C@H]3c3ccccc3)c2C1` (relative stereo) [Example 14, N-(tert-butyl)-8-(((trans)-2-phenylcyclopropanecarboxamido)methyl)-5-(3-(trifluoromethyl)phenyl)-3,4-dihydroisoquinoline-2(1H)-carboxamide], the concentration for half-maximal inhibition (IC50) stood at 34 nM.

`CC(C)(C)NC(=O)N1CCc2c(-c3cccc(C(C)(C)O)c3)ccc(CNC(=O)[C@@H]3C[C@H]3c3ccccc3)c2C1` (relative stereo) [Example 52, N-(tert-butyl)-5-(3-(2-hydroxypropan-2-yl)phenyl)-8-(((trans)-2-phenylcyclopropanecarboxamido)methyl)-3,4-dihydroisoquinoline-2(1H)-carboxamide]: the IC50 was 20.2 nM.

For the compound `COc1cccc(-c2ccc(CNC(=O)[C@H]3C[C@@H]3c3cccnc3)c3c2CCN(C(=O)NC(C)(C)C)C3)c1` (relative stereo) [Example 19, N-(tert-butyl)-5-(3-methoxyphenyl)-8-(((trans)-2-(pyridin-3-yl)cyclopropanecarboxamido)methyl)-3,4-dihydroisoquinoline-2(1H)-carboxamide], the IC50 came to 8.5 nM. Turning to `COc1cccc(-c2ccc(CNC(=O)[C@@H]3C[C@H]3c3nc(C)no3)c3c2CCN(C(=O)NC(C)(C)C)C3)c1` (relative stereo) [Example 11, N-(tert-butyl)-5-(3-methoxyphenyl)-8-(((trans)-2-(3-methyl-1,2,4-oxadiazol-5-yl)cyclopropanecarboxamido)methyl)-3,4-dihydroisoquinoline-2(1H)-carboxamide], the IC50 is 3 nM. The figure for `COc1cccc(-c2ccc(CNC(=O)C3CC3c3ccccc3)c3c2CCN(CC(F)(F)F)C3)c1` (centres unmarked) [Example 93, N-((5-(3-methoxyphenyl)-2-(2,2,2-trifluoroethyl)-1,2,3,4-tetrahydroisoquinolin-8-yl)methyl)-2-phenylcyclopropanecarboxamide] is 1220 nM. The figure for `COC(=O)c1cccc(-c2ccc(CNC(=O)C3CC3c3ccccc3)c3c2CCN(C(=O)c2ccccc2F)C3)c1` (centres unmarked) [Example 139, methyl 3-(2-(2-fluorobenzoyl)-8-((2-phenylcyclopropanecarboxamido)methyl)-1,2,3,4-tetrahydroisoquinolin-5-yl)benzoate] is 219 nM; for `COC(=O)c1cccc(-c2ccc(CNC(=O)C3CC3c3ccccc3)c3c2CCN(CCC(F)(F)F)C3)c1` (centres unmarked) [Example 100, methyl 3-(8-((2-phenylcyclopropanecarboxamido)methyl)-2-(3,3,3-trifluoropropyl)-1,2,3,4-tetrahydroisoquinolin-5-yl)benzoate] it is 3470 nM.

`Cc1noc([C@@H]2C[C@H]2C(=O)NCc2ccc(-c3cccc(OC(F)(F)F)c3)c3c2CN(Cc2cnccn2)CC3)n1` (relative stereo) [Example 107, (trans)-2-(3-methyl-1,2,4-oxadiazol-5-yl)-N-((2-(pyrazin-2-ylmethyl)-5-(3-(trifluoromethoxy)phenyl)-1,2,3,4-tetrahydroisoquinolin-8-yl)methyl)cyclopropanecarboxamide]: the IC50 amounted to 4770 nM. For the compound `CC(C)(C)NC(=O)N1CCc2c(-c3cccc(C#N)c3)ccc(CNC(=O)[C@@H]3C[C@H]3c3ccccc3)c2C1` (relative stereo) [Example 22, N-(tert-butyl)-5-(3-cyanophenyl)-8-(((trans)-2-phenylcyclopropanecarboxamido)methyl)-3,4-dihydroisoquinoline-2(1H)-carboxamide], the 50% inhibitory concentration (IC50) worked out at 16.1 nM.

`COC(=O)c1cccc(-c2ccc(CNC(=O)C3CC3c3ccccc3)c3c2CCN(C(=O)C2CCC(C)CC2)C3)c1` (centres unmarked) [Example 137, methyl 3-(2-(4-methylcyclohexanecarbonyl)-8-((2-phenylcyclopropanecarboxamido)methyl)-1,2,3,4-tetrahydroisoquinolin-5-yl)benzoate]: the concentration for half-maximal inhibition (IC50) came to 3340 nM.

Broadly, the IC50 is the concentration that inhibits the measured activity by half.
